Measurements reported in patent US11917960B2, “Methods to improve genetic transformation of sorghum” (Commonwealth Scientific and Industrial Research Organisation, priority 2016, dated 2024).
Marks after values point to notes of the source that are not given here.

What was measured:
Type in all cases: cell-based, Sorghum bicolor L
immature embryos (IEs) [1] = assay: DEC tissue induction from immature embryos on CIM with or without LA; conditions: for Green tissue induction frequency: CIM + 1 mg/l LA, 6 weeks culture, mean ± SD, frequency calculated as a percentage, in %
Experimental: Plants of the grain sorghum of the inbred cultivar TX-430 (Miller 1984) were grown in a plant growth chamber (Conviron, PGC-20 flex) at 28±1° C. “day” temperature and 20±1° C. “night” temperature, with a. 16 hr photoperiod at a light intensity during the “day” of 900-1000 LUX. Panicles were covered with white translucent paper bags before flowering. Immature embryos were harvested from panicles 12-15 days after anthesis. Panicles were washed several times with water and developing seeds that were uniform in size were isolated and surface-sterilized using 20% commercial bleach mixed with 0.1% Tween-20 for 15-20 min. They were then washed with sterile distilled water 3 times each for 20 min, and blotted dry in a laminar flow hood. Immature embryos (IEs) ranging from 1.4 to 2.5 mm in length were aseptically isolated in the laminar flow hood and used as the starting tissue for preparation of green regenerative tissue.
The isolated IEs ranging from 1.4 to 2.5 mm in length were placed onto callus induction media (CIM) of various compositions with their scutellum facing upward. CIM modified to improve callus quality and induction frequency from immature embryos, as well as callus regeneration media, included α-Lipoic acid (1 to 5 mg/1), Melatonin (5 to 10 mg/l) and 2-Aminoidan-2-phosphonic acid HCl (1 to 2 mg/l) unless otherwise stated. For the development of green tissue, immature embryos were incubated under fluorescent light of approximately 45-50 μmol s^−1 m^−2 (16 h/day) in a tissue culture room at 24±2° C. After three days of culture, the root and shoot poles of the immature embryos were aseptically separated and re-inoculated on to the same media (CIM) and maintained under the same conditions as described above. They were subcultured every two weeks for 6 weeks by chopping the callus into 2-3 mm portions, re-inoculating on to the same media (CIM) and maintaining under the same conditions described above, after which time the tissue cultures were evaluated for callus quality, callus induction efficiency and transformation efficiency. Callus induction frequency was calculated as the number of calli obtained (˜5 mm) over total number of immature embryos inoculated, as a percentage.
Sets of IEs ranging from 1.4 to 2.5 mm in length, each set isolated from one panicle, were aseptically isolated and cultured on CIM medium as described in Example 1. Some sets were cultured with the addition of α-Lipoic acid (LA, 1 mg/I or 5 mg/), others without, in order to determine the effect of this agent.
After 6 weeks of culture including subculture every two weeks onto the same medium, DEC tissue induction frequency and quality were evaluated. […]

immature embryos (IEs) [2] = assay: DEC tissue yield on CIM with or without LA; conditions: for DEC yield in number ~5 mm each: CIM + 1 mg/l LA, 45 IEs
From the text: After 4 to 12 weeks of culture, the number of DEC tissues obtained were counted. The number of DEC tissue pieces (˜5 mm) obtained at 12 weeks on CIM with LA was almost double when compared to using CIM without LA. Furthermore, the quality of the DEC tissues obtained on CIM with LA was improved compared to using the medium without LA.

DEC tissue of sorghum = assay: Regeneration frequency and number of shoots per DEC tissue on SIM and SRM; conditions: for Number of shoots/callus / Regeneration frequency (%): LA in SIM and SRM, mean ± SD
Experimental: After six weeks on the CIM, some uniform green-coloured DEC tissue of about 4-7 mm diameter were transferred on to shoot induction medium (SIM) and cultured for another 2-3 weeks in order to begin organogenesis. Tissues which had induced shoot buds were then transferred to shoot regeneration medium (SRM) and again cultured for 2-3 weeks. Regenerability of DEC tissue of different ages (2-6 months from initiation) was also tested on SRM medium comprising different concentrations of BAP (0.5-1.0 mg/l) and TDZ (0.5-1.0 mg/l). The number of shoots were counted and the regeneration frequency (i.e. the number of shoots/DEC tissue) was calculated after 3 weeks culture on SRM (total of approximately 5 weeks culture inclusive of culture on SIM and SRM). Individual shoots approximately 2-3 cm in length were transferred to shoot out growth (SOG) medium and cultured for another 2-3 weeks. Well-developed shoots (4-5 cm in length), were carefully separated from the cluster and transferred to root induction medium (RIM) and cultured for 3-4 weeks. For shoot induction to complete plant regeneration, 50-60 μmol s^−1 m^−2 (16 h/day) fluorescent light was used in the tissue culture room at 24±2° C. Shoots (about 8 cm in length) with numerous (often 15-20) healthy looking roots were transferred to soil and grown to maturity in a PC2 glasshouse at […]. The optimized culture medium composition for the different stages of plant transformation from callus induction to plant regeneration from green tissue induced from immature embryos is presented in Table 1.
Uniform ready-to-use high quality green DEC tissues (5 mm) each with nodular structures induced on CIM medium with or without added LA were transferred to shoot induction medium (SIM) with and without LA and cultured for another 2-3 weeks. Tissues with induced shoot buds were then transferred to shoot regeneration medium (SRM) with or without added LA and again cultured for 2 weeks. Regenerability of green tissues of different ages (2-6 months from initiation) was tested on SRM medium containing different concentrations of BAP (0.5-1.0 mg/l) and TDZ (0.5-1.0 mg/l). Tissues including the shoot buds were again cultured on hormone free medium (SOG) with or without LA. The number of shoots was counted after 2 weeks of culture on SRM and the regeneration frequency (number of shoots/DEC tissue) calculated.

[3] = tested on: DEC tissues/somatic embryos; assay: Sensitivity of DEC tissues/somatic embryos to Geneticin; conditions: for Green DEC tissue survival (%): CIM + 1 mg/l LA, 6 weeks culture
Experimental: The experiment was carried out using 6 weeks-old uniform, healthy green-coloured DEC tissues about 5 mm in size and which contained some somatic embryos, produced after culturing on CIM containing 1 mg/l LA. The Geneticin levels used were 0, 15, 25, 35 and 45 mg/L, respectively. Three replicates each of 15 green DEC tissue pieces per plate were used for each concentration of Geneticin tested. The tissues were cultured for 6 weeks, being subcultured every two weeks onto the same medium, including the same Geneticin concentrations.
After 6 weeks of culture, the number of green DEC tissues that had survived was counted.
DEC tissues (about 5 mm) began to display geneticin stress symptoms on selective callus induction media (CIM with geneticin) within 3 weeks of culture. […] Very few calli (2-6) survived with dead patches. On this basis, geneticin at a final concentration of 25 mg/i was used in the callus induction media for 3 cycles (2 weeks each) and then increased to 30 mg/i for one cycle in shoot induction media (Table 6). Different concentrations of geneticin in CIM and SIM was deemed optimal in preventing shoot regeneration from non-transformed callus.

[4] = after 8 weeks on CIM with G25 and 35 mg/l

O=C(O)CCCCC1CCSS1 (stereo not drawn) [LA, α-Lipoic acid]
DEC tissue induction at higher concentration of LA compared to 1 mg/ml (immature embryos (IEs) [1]; LA 5 mg/l in CIM): no significant further improvement
Green tissue induction frequency (immature embryos (IEs) [1]; immature embryo size 1.5-2 mm): 79.0 ± 6.5
Green tissue induction frequency (immature embryos (IEs) [1]; immature embryo size >2 mm): 59.0 ± 5.5
DEC tissue induction frequency compared to CIM without LA (immature embryos (IEs) [1]; small immature embryos (1.5-2 mm), significant at p<0.01): greater
Number of DEC tissue pieces (~5 mm) compared to CIM without LA (immature embryos (IEs) [2]; 12 weeks on CIM with LA): almost double
DEC yield in number ~5 mm each (immature embryos (IEs) [2]; culturing time 4 weeks): 36
DEC yield in number ~5 mm each (immature embryos (IEs) [2]; culturing time 6 weeks): 90
DEC yield in number ~5 mm each (immature embryos (IEs) [2]; culturing time 8 weeks): 120
DEC yield in number ~5 mm each (immature embryos (IEs) [2]; culturing time 10 weeks): 218
DEC yield in number ~5 mm each (immature embryos (IEs) [2]; culturing time 12 weeks): 825
Number of shoots/callus (DEC tissue of sorghum; DEC tissue age 2 months): 40 ± 4.5^b
Regeneration frequency (%) (DEC tissue of sorghum; DEC tissue age 2 months): 97.6 ± 2.5%
Number of shoots/callus (DEC tissue of sorghum; DEC tissue age 4 months): 40 ± 1.5^d
Regeneration frequency (%) (DEC tissue of sorghum; DEC tissue age 4 months): 97 ± 2.6 %
Number of shoots/callus (DEC tissue of sorghum; DEC tissue age 6 months): 33 ± 2.5^f
Regeneration frequency (%) (DEC tissue of sorghum; DEC tissue age 6 months): 94.3 ± 2.0 %
Regeneration frequency and number of shoots/DEC tissue for different ages of DEC tissue (DEC tissue of sorghum; LA included in both SIM and SRM, versus without LA): did not decline as much

CN[C@@H]1[C@@H](O)[C@@H](O[C@@H]2[C@@H](O)[C@H](O[C@H]3O[C@H]([C@@H](C)O)[C@@H](O)[C@H](O)[C@H]3N)[C@@H](N)C[C@H]2N)OC[C@]1(C)O [Geneticin]
Green DEC tissue survival (%) ([3]; Geneticin 15 mg/l): 80 ± 1.0%
Green DEC tissue survival (%) ([3]; Geneticin 25 mg/l): 4 ± 2.6%
Green DEC tissue survival (%) ([3]; Geneticin 35 mg/l): 2 ± 0.5%
Green DEC tissue survival (%) ([3]; Geneticin 45 mg/l): 0%
Appearance of calli [3, 4]: most of the calli turned dark brown in colour with no signs of survival
Number of calli survived with dead patches [3, 4]: 2-6
Time until DEC tissues began to display geneticin stress symptoms ([3]; selective callus induction media (CIM with geneticin)): ≤ 3 weeks
